Measured values taken from PubChem BioAssay (NCI).
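Interpolation was linear, between the two tested concentrations surrounding the appropriate level; five concentrations were tested over 48 hours in 96-well plates. TGI marks complete inhibition of growth.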

Experiments:
Assay in all cases: NCI anticancer screen, dose series, 48 h
[1] = tested on: KM12 colon
[2] = tested on: NCI-H226 lung
[3] = tested on: ACHN renal
[4] = tested on: A498 renal
[5] = tested on: OVCAR-4 ovarian
[6] = tested on: UO-31 renal
[7] = tested on: RXF 393 renal
[8] = tested on: CAKI-1 renal
[9] = tested on: SR leukemia
[10] = tested on: HOP-18 NSCLC
[11] = tested on: HL-60(TB) leukemia
[12] = tested on: LOX IMVI melanoma
[13] = tested on: UACC-62 melanoma
[14] = tested on: OVCAR-8 ovarian
[15] = tested on: K-562 leukemia
[16] = tested on: MOLT-4 leukemia
[17] = tested on: SF-539 CNS
[18] = tested on: CCRF-CEM leukemia
[19] = tested on: SK-MEL-5 melanoma
[20] = tested on: NCI-H23 lung
[21] = tested on: HOP-62 NSCLC
[22] = tested on: UACC-257 melanoma
[23] = tested on: SK-OV-3 ovarian
[24] = tested on: IGROV1 ovarian
[25] = tested on: SW-620 colon
[26] = tested on: 786-0 renal
[27] = tested on: SNB-19 CNS
[28] = tested on: SK-MEL-28 melanoma
[29] = tested on: DMS 273 small cell lung
[30] = tested on: SN12C renal
[31] = tested on: EKVX NSCLC
[32] = tested on: HCC-2998 colon
[33] = tested on: TK-10 renal
[34] = tested on: OVCAR-5 ovarian
[35] = tested on: U251 CNS
[36] = tested on: HT29 colon
[37] = tested on: SNB-78 CNS
[38] = tested on: RPMI-8226 leukemia
[39] = tested on: DMS 114 small cell lung
[40] = tested on: A549 NSCLC
[41] = tested on: SF-268 CNS
[42] = tested on: OVCAR-3 ovarian
[43] = tested on: XF 498 CNS
[44] = tested on: MALME-3M melanoma
[45] = tested on: SF-295 CNS
[46] = tested on: LXFL 529 NSCLC
[47] = tested on: KM20L2 colon
[48] = tested on: HOP-92 NSCLC
[49] = tested on: SNB-75 CNS
[50] = tested on: SK-MEL-2 melanoma
[51] = tested on: HCT-116 colon
[52] = tested on: NCI-H460 lung
[53] = tested on: NCI-H522 lung
[54] = tested on: COLO 205 colon
[55] = tested on: M19-MEL melanoma
[56] = tested on: HCT-15 colon
[57] = tested on: M14 melanoma
[58] = tested on: DLD-1 colon

Structure (SMILES): Cc1c2ccncc2c(C)c2c1[nH]c1ccc(Oc3ccccc3)cc12
- TGI [1]: 9.49 µM
- TGI [2]: 37.6 µM
- TGI [3]: 17.3 µM
- TGI [4]: 11.4 µM
- TGI [5]: 10.5 µM
- TGI [6]: 35.2 µM
- TGI [7]: 3.84 µM
- TGI [8]: > 100 µM
- TGI [9]: 12.3 µM
- TGI [10]: 30.4 µM
- TGI [11]: 5.88 µM
- TGI [12]: 4 µM
- TGI [13]: 3.16 µM
- TGI [14]: 3.48 µM
- TGI [15]: 4.01 µM
- TGI [16]: 6.44 µM
- TGI [17]: 3.13 µM
- TGI [18]: 9.41 µM
- TGI [19]: 9.46 µM
- TGI [20]: > 53.1 µM
- TGI [21]: 4.42 µM
- TGI [22]: 4.33 µM
- TGI [23]: 15.9 µM
- TGI [24]: 42.4 µM
- TGI [25]: > 100 µM
- TGI [26]: 3.24 µM
- TGI [27]: 46.1 µM
- TGI [28]: 9.67 µM
- TGI [29]: 3.07 µM
- TGI [30]: 4.69 µM
- TGI [31]: > 100 µM
- TGI [32]: 3.18 µM
- TGI [33]: 22.9 µM
- TGI [34]: 3.94 µM
- TGI [35]: 3.37 µM
- TGI [36]: 3.84 µM
- TGI [37]: 6.68 µM
- TGI [38]: 5.27 µM
- TGI [39]: 3.35 µM
- TGI [40]: 4.8 µM
- TGI [41]: > 28.4 µM
- TGI [42]: 7.75 µM
- TGI [43]: 3.61 µM
- TGI [44]: 3.58 µM
- TGI [45]: 12.6 µM
- TGI [46]: 4.28 µM
- TGI [47]: 3.36 µM
- TGI [48]: 13.9 µM
- TGI [49]: 8.73 µM

Structure (SMILES): O=C(N/C(=C\c1ccccc1O)c1nc2ccccc2[nH]1)c1ccccc1
- TGI [1]: > 100 µM
- TGI [3]: > 100 µM
- TGI [4]: > 100 µM
- TGI [5]: > 100 µM
- TGI [6]: > 100 µM
- TGI [50]: > 100 µM
- TGI [7]: > 100 µM
- TGI [8]: > 100 µM
- TGI [10]: > 100 µM
- TGI [12]: > 100 µM
- TGI [13]: > 100 µM
- TGI [14]: > 100 µM
- TGI [15]: > 100 µM
- TGI [16]: > 100 µM
- TGI [51]: > 100 µM
- TGI [17]: > 100 µM
- TGI [18]: > 100 µM
- TGI [19]: > 100 µM
- TGI [20]: > 100 µM
- TGI [21]: > 100 µM
- TGI [22]: > 100 µM
- TGI [23]: > 100 µM
- TGI [24]: > 100 µM
- TGI [25]: > 100 µM
- TGI [26]: > 100 µM
- TGI [27]: > 100 µM
- TGI [28]: > 100 µM
- TGI [52]: > 100 µM
- TGI [29]: > 100 µM
- TGI [30]: > 100 µM
- TGI [53]: > 100 µM
- TGI [31]: > 100 µM
- TGI [32]: > 100 µM
- TGI [33]: 90.8 µM
- TGI [34]: > 100 µM
- TGI [35]: > 100 µM
- TGI [36]: > 100 µM
- TGI [54]: > 100 µM
- TGI [37]: > 100 µM
- TGI [38]: > 100 µM
- TGI [39]: > 100 µM
- TGI [40]: > 100 µM
- TGI [41]: > 100 µM
- TGI [55]: > 100 µM
- TGI [42]: > 100 µM
- TGI [43]: > 100 µM
- TGI [56]: > 100 µM
- TGI [44]: > 100 µM
- TGI [57]: > 100 µM
- TGI [46]: > 100 µM
- TGI [47]: > 100 µM
- TGI [48]: > 100 µM
- TGI [49]: 36.1 µM

Structure (SMILES): COCN(C)c1nc(N(C)C)nc(N(C)C)n1
- TGI [1]: > 100 µM
- TGI [3]: > 100 µM
- TGI [58]: > 100 µM
- TGI [4]: > 100 µM
- TGI [5]: > 100 µM
- TGI [6]: > 100 µM
- TGI [50]: > 100 µM
- TGI [7]: > 100 µM
- TGI [8]: > 100 µM
- TGI [9]: > 100 µM
- TGI [10]: > 100 µM
- TGI [11]: > 100 µM
- TGI [12]: > 100 µM
- TGI [13]: > 100 µM
- TGI [14]: > 100 µM
- TGI [15]: > 100 µM
- TGI [16]: > 100 µM
- TGI [51]: > 100 µM
- TGI [17]: > 100 µM
- TGI [18]: > 100 µM
- TGI [19]: > 100 µM
- TGI [20]: > 100 µM
- TGI [21]: > 100 µM
- TGI [22]: > 100 µM
- TGI [23]: > 100 µM
- TGI [24]: > 100 µM
- TGI [25]: > 100 µM
- TGI [26]: > 100 µM
- TGI [27]: > 100 µM
- TGI [28]: > 100 µM
- TGI [52]: > 100 µM
- TGI [29]: > 100 µM
- TGI [30]: > 100 µM
- TGI [53]: 37 µM
- TGI [31]: > 100 µM
- TGI [32]: > 100 µM
- TGI [33]: > 100 µM
- TGI [34]: > 100 µM
- TGI [35]: > 100 µM
- TGI [36]: > 100 µM
- TGI [54]: > 100 µM
- TGI [37]: > 100 µM
- TGI [38]: > 100 µM
- TGI [39]: > 100 µM
- TGI [40]: > 100 µM
- TGI [41]: > 100 µM
- TGI [55]: > 100 µM
- TGI [42]: > 100 µM
- TGI [56]: > 100 µM
- TGI [44]: > 100 µM
- TGI [57]: > 100 µM
- TGI [45]: > 100 µM
- TGI [46]: > 100 µM
- TGI [47]: > 100 µM
- TGI [48]: > 100 µM
- TGI [49]: > 100 µM
